Experimental data as given in patent EP0497921B1, “METHOD FOR INHIBITING ENZYMATIC SYNTHESIS OF NUCLEIC ACIDS USING ISOPSORALENS” (ISAACS, Stephen T., priority 1989, dated 1991).

Tests used:
HIV 115-mer [1] = test: Effect of unirradiated isopsoralen on PCR amplification; type: biochemical; settings: for Counts (CPM): unirradiated, 30 cycles, 42200 without AMDMIP
Method: To systematically evaluate the effect of the presence of increasing concentrations of isopsoralen on PCR, AMDMIP (0, 100, 200, 400 µg/ml) was added to 10^7 copies of HIV 115-mer as template. PCR was then carried out for 30 cycles in the presence of α-^32P-dCTP. The PCR product was run on denaturing polyacrylamide gel and autoradiographed. The bands were thereafter cut and counted.

[2] = test system: Molt-4 human genomic DNA target; test: Sterilization of genomic target before PCR (174 bp beta globin product); type: biochemical
Method: Four samples containing 1 µg of Molt-4 human genomic DNA target were prepared for PCR with primers KM 29 (5'-[…]) and HRI-12 (5'-[…]). These primers give a 174 bp product within the human beta globin gene. All four samples contained AMDMIP at 100 µg/ml, and were irradiated for 0, 5, 10 or 15 minutes prior to PCR amplification. […] Amplification were carried out in 1 x Taq buffer (50 mM KCl, 10 mM Tris pH 8.5, 2.5 mM MgCl2, 200 µg/ml gelatin), 175 µM each dNTP, 20 µM primer with 2.5 units of Taq polymerase and 100 µg/ml AMDMIP present during amplification. PCR was carried out for 30 cycles; one cycle = 30 sec at 94°C (denaturing), 30 sec at 55°C (primer annealing), and 60 sec at 72°C (extension). α-^32P-dCTP was used as an internal label. After amplification, the samples were analyzed for product by PAGE followed by autoradiaography.

HIV 115-mer [3] = test: PCR sterilization with pre-irradiated compound (photoproduct) added to PCR product; type: biochemical
Method: AMDMIP photoproduct was made by irradiating AMDMIP (using the CE-III device) in 1 x Taq buffer (50 mM KCL, 2.5 mM MgCl2, 10 mM Tris, pH 8.5, 200 µg/ml gelatin) in a separate vessel for 15 minutes at room temperature (RT). Aliquots of AMDMIP photoproduct and the unirradiated compound were added (by pipetting) at 50, 100, 200 and 300 µg/ml to 1 µl aliquots of a 10^6 dilution of PCR product copies. PCR product was provided by a) preparing template, b) providing template, c) providing PCR reagents, d) providing polymerase, e) mixing PCR reagents, template, and polymerase to initiate PCR, f) cycling to synthesize PCR product. Step a): Template Preparation. The templates were derived from actual patient samples. Ficoll-Hypaque separated peripheral blood mononuclear cells (PBMCs) are prepared from individuals enrolled in a longitudinal AIDS study. Approximately 1 X 10^6 cells are added to 10 ml of RPMI containing 10% fetal calf serum. The cells are pelleted by centrifugation at 200 x g for 5 minutes and washed twice with 10 ml PBS. […]
Again, to evaluate the efficacy of this method of sterilization, a subsequent polymerase chain reaction was carried out for 30 cycles in the presence of α-^32P-dCTP. PCR product was then quantitated by running gels (see above), cutting the bands (detected by autoradiography) and counting the bands on a commercial scintillation counter. […]

DNA = DNA base pair:isopsoralen ratio of 24.3 to 1; 13.1 µg/ml; cited from earlier work
human placental DNA = test: PCR amplification with unirradiated AMDMIP and DMSO co-solvent; type: biochemical; settings: for CPM of product bands: AMDMIP 200 µg/ml unirradiated
Method: In this example, the effect of DMSO on PCR amplification in the presence of high concentrations of sterilizing compound (AMDMIP) was investigated. Samples were prepared for PCR which contained 1 µg of human placental DNA either with or without (unirradiated) AMDMIP (200 µg/ml). The samples were amplified 30 cycles under standard PCR conditions in the presence of 0%, 1%, 5% or 10% DMSO. The reaction mix contained α-^32P-dCTP. Following amplification, the samples were analyzed by PAGE (data not shown).

## 4'-Aminomethyl-4,5'-dimethylisopsoralen [AMDMIP]
HIV 115-mer [1]; HIV 115-mer system
  concentrations compatible with the PCR system: up to 400 µg/ml
HIV 115-mer [1]; [AMDMIP] 100 µg/ml
  Counts (CPM): 77200 CPM
HIV 115-mer [1]; [AMDMIP] 200 µg/ml
  Counts (CPM): 77500 CPM
HIV 115-mer [1]; [AMDMIP] 400 µg/ml
  Counts (CPM): 69400 CPM
[2]; 100 µg/ml, data not shown
  impact of unirradiated AMDMIP on amplification: no significant impact on amplification
[2]; AMDMIP 100 µg/ml, irradiated 0, 5, 10 or 15 minutes prior to PCR, 30 cycles
  amplification after irradiation in the presence of AMDMIP: no amplification of the sterilized genomic target
HIV 115-mer [3]; unirradiated AMDMIP at the same concentration as the photoproduct
  sterilization of PCR (30 cycles, autoradiography): PCR product is clearly evident
HIV 115-mer [3]; unirradiated compound at 50, 100, 200 and 300 µg/ml
  sterilization of PCR (30 cycles, autoradiography): no sterilization
DNA
  1 photobound AMDMIP per n DNA base pairs: 151 DNA base pairs
Human placental DNA; 200 µg/ml, no DMSO, 30 cycles
  amplification with unirradiated AMDMIP: virtually no detectable amplification product
Human placental DNA; 0% DMSO
  CPM of product bands: 2500 CPM
Human placental DNA; 1% DMSO
  CPM of product bands: 2800 CPM
Human placental DNA; 5% DMSO
  CPM of product bands: 86,000 CPM
Human placental DNA; 10% DMSO
  CPM of product bands: 102,000 CPM
